# What was measured:
# AMBEL (Ragweed, Common) [1] = assay: Postemergence herbicidal evaluation; type: in vivo, Ambrosia artemisifolia
# Procedure, shortened: (§1)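 Rate range approx. 0.0156–0.500 kg/ha. Foliar application at 40 psi to ~2-week seedlings; surfactant 0.5% TWEEN 20 in 50/50 acetone/water. Evaluation 4–5 wk post-treatment by 0–9 visual injury score, means of replicate tests.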
# CASOB (Sicklepod) [2] = assay: Postemergence herbicidal evaluation; type: in vivo, Cassia obtusifolia
# Procedure, shortened: as §1
# [3] = system: CHEAL (Lambsquarters, Common); assay: Postemergence herbicidal evaluation; type: in vivo, Chenopodium album
# Procedure, shortened: as §1
# [4] = system: IPOHE (Morningglory, Ivyleaf); assay: Postemergence herbicidal evaluation; type: in vivo, Ipomoea hederacea
# Procedure, shortened: as §1
# ECHCG (Barnyardgrass) = assay: Postemergence herbicidal evaluation; type: in vivo, Echinochloa crus-galli
# Procedure, shortened: as §1
# [5] = system: GLXMAW (Soybean, Williams); assay: Postemergence herbicidal evaluation; type: in vivo, Glycine max, (L.) Merr. cv Williams
# Procedure, shortened: as §1
# [6] = system: TRZAWR (Wheat, Winter, cv Riband); assay: Postemergence herbicidal evaluation; type: in vivo, Triticum aestivum
# Procedure, shortened: as §1
# ABUTH (Velvetleaf) = assay: Preemergence herbicidal evaluation; type: in vivo, Abutilon theophrasti; conditions: rated 4-5 weeks after treatment
# Procedure, shortened: (§2)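 Visual 0-9 rating vs control (stand, vigor, malformation, size, chlorosis, overall appearance), scored 4-5 wk after spraying. Seeded soil cups were treated preemergence with compound in aqueous acetone, ~0.0156-0.500 kg/ha equivalent.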
# AMBEL (Ragweed, Common) [7] = assay: Preemergence herbicidal evaluation; type: in vivo, Ambrosia artemisifolia; conditions: rated 4-5 weeks after treatment
# Procedure, shortened: as §2
# CASOB (Sicklepod) [8] = assay: Preemergence herbicidal evaluation; type: in vivo, Cassia obtusifolia; conditions: rated 4-5 weeks after treatment
# Procedure, shortened: as §2
# [9] = system: CHEAL (Lambsquarters, Common); assay: Preemergence herbicidal evaluation; type: in vivo, Chenopodium album; conditions: rated 4-5 weeks after treatment
# Procedure, shortened: as §2
# [10] = system: IPOHE (Morningglory, Ivyleaf); assay: Preemergence herbicidal evaluation; type: in vivo, Ipomoea hederacea; conditions: rated 4-5 weeks after treatment
# Procedure, shortened: as §2
# [11] = system: GLXMAW (Soybean, Williams); assay: Preemergence herbicidal evaluation; type: in vivo, Glycine max, (L.) Merr. cv Williams; conditions: rated 4-5 weeks after treatment
# Procedure, shortened: as §2
# ORYSAT (Rice, Tebonnet) = assay: Preemergence herbicidal evaluation; type: in vivo, Oryza sativa, (L.) Tebonnet; conditions: rated 4-5 weeks after treatment
# Procedure, shortened: as §2
# MOOVA (Monochoria) = assay: Preemergence weed control under flooded paddy conditions; type: in vivo, Monochoria vaginalis; conditions: rated 3-4 weeks after treatment
# Procedure, shortened: (§3)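 Seeds or propagules sown in top 0.5 cm of silt loam soil, flooded 1.5 to 3 cm above surface throughout. Compound in 50/50 v/v aqueous/acetone pipetted into flood water at about 0.0313 to 0.500 kg/ha. Visual 0-9 rating versus control after three to four weeks in greenhouse.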
# [12] = system: SAGPY (Arrowhead (Pygmaea)); assay: as above; type: in vivo, Sagittaria pygmaea; conditions: rated 3-4 weeks after treatment
# Procedure, shortened: as §3
compound,measurement,setting,value
"O=C(O)CC1SC(=Nc2cc(N3C(=O)C4=C(CCCC4)C3=O)c(F)cc2Cl)N(CC(=O)O)C1=O (centres unmarked) [Compound 48, 2-{[2-Chloro-5-(1-cyclohexene-1,2-dicarboximido)-4-fluorophenyl]imino}-4-oxo-3,5-thiazolidinediacetic acid]",Postemergence herbicidal rating AMBEL,"AMBEL (Ragweed, Common) [1]; Rate 0.0156 kg/ha",3.0
same,Postemergence herbicidal rating AMBEL,"AMBEL (Ragweed, Common) [1]; Rate 0.0313 kg/ha",5.0
same,Postemergence herbicidal rating AMBEL,"AMBEL (Ragweed, Common) [1]; Rate 0.0625 kg/ha",9.0
same,Postemergence herbicidal rating CASOB,CASOB (Sicklepod) [2]; Rate 0.0156 kg/ha,0.0
same,Postemergence herbicidal rating CASOB,CASOB (Sicklepod) [2]; Rate 0.0313 kg/ha,2.0
same,Postemergence herbicidal rating CASOB,CASOB (Sicklepod) [2]; Rate 0.0625 kg/ha,3.0
same,Postemergence herbicidal rating CHEAL,[3]; Rate 0.0156 kg/ha,3.0
same,Postemergence herbicidal rating CHEAL,[3]; Rate 0.0313 kg/ha,4.0
same,Postemergence herbicidal rating CHEAL,[3]; Rate 0.0625 kg/ha,4.0
same,Postemergence herbicidal rating IPOHE,[4]; Rate 0.0156 kg/ha,9.0
same,Postemergence herbicidal rating IPOHE,[4]; Rate 0.0313 kg/ha,9.0
same,Postemergence herbicidal rating IPOHE,[4]; Rate 0.0625 kg/ha,9.0
same,Postemergence herbicidal rating ECHCG,ECHCG (Barnyardgrass); Rate 0.0156 kg/ha,0.0
same,Postemergence herbicidal rating ECHCG,ECHCG (Barnyardgrass); Rate 0.0313 kg/ha,2.0
same,Postemergence herbicidal rating ECHCG,ECHCG (Barnyardgrass); Rate 0.0625 kg/ha,2.0
same,Postemergence herbicidal rating GLXMAW,[5]; Rate 0.0156 kg/ha,5.5
same,Postemergence herbicidal rating GLXMAW,[5]; Rate 0.0313 kg/ha,6.0
same,Postemergence herbicidal rating GLXMAW,[5]; Rate 0.0625 kg/ha,7.5
same,Postemergence herbicidal rating TRZAWR,[6]; Rate 0.0156 kg/ha,5.0
same,Postemergence herbicidal rating TRZAWR,[6]; Rate 0.0313 kg/ha,5.0
same,Postemergence herbicidal rating TRZAWR,[6]; Rate 0.0625 kg/ha,5.0
same,Preemergence herbicidal rating ABUTH,ABUTH (Velvetleaf); rate 0.0156 kg/ha,0.0
same,Preemergence herbicidal rating ABUTH,ABUTH (Velvetleaf); rate 0.0313 kg/ha,0.0
same,Preemergence herbicidal rating ABUTH,ABUTH (Velvetleaf); rate 0.0625 kg/ha,4.0
same,Preemergence herbicidal rating ABUTH,ABUTH (Velvetleaf); rate 0.1250 kg/ha,9.0
same,Preemergence herbicidal rating ABUTH,ABUTH (Velvetleaf); rate 0.2500 kg/ha,9.0
same,Preemergence herbicidal rating AMBEL,"AMBEL (Ragweed, Common) [7]; rate 0.0156 kg/ha",0.0
same,Preemergence herbicidal rating AMBEL,"AMBEL (Ragweed, Common) [7]; rate 0.0313 kg/ha",0.0
same,Preemergence herbicidal rating AMBEL,"AMBEL (Ragweed, Common) [7]; rate 0.0625 kg/ha",0.0
same,Preemergence herbicidal rating AMBEL,"AMBEL (Ragweed, Common) [7]; rate 0.1250 kg/ha",0.0
same,Preemergence herbicidal rating AMBEL,"AMBEL (Ragweed, Common) [7]; rate 0.2500 kg/ha",4.0
same,Preemergence herbicidal rating CASOB,CASOB (Sicklepod) [8]; rate 0.0156 kg/ha,0.0
same,Preemergence herbicidal rating CASOB,CASOB (Sicklepod) [8]; rate 0.0313 kg/ha,0.0
same,Preemergence herbicidal rating CASOB,CASOB (Sicklepod) [8]; rate 0.0625 kg/ha,0.0
same,Preemergence herbicidal rating CASOB,CASOB (Sicklepod) [8]; rate 0.1250 kg/ha,0.0
same,Preemergence herbicidal rating CASOB,CASOB (Sicklepod) [8]; rate 0.2500 kg/ha,3.0
same,Preemergence herbicidal rating CHEAL,[9]; rate 0.0156 kg/ha,9.0
same,Preemergence herbicidal rating CHEAL,[9]; rate 0.0313 kg/ha,9.0
same,Preemergence herbicidal rating CHEAL,[9]; rate 0.0625 kg/ha,9.0
same,Preemergence herbicidal rating CHEAL,[9]; rate 0.1250 kg/ha,9.0
same,Preemergence herbicidal rating CHEAL,[9]; rate 0.2500 kg/ha,9.0
same,Preemergence herbicidal rating IPOHE,[10]; rate 0.0156 kg/ha,0.0
same,Preemergence herbicidal rating IPOHE,[10]; rate 0.0313 kg/ha,0.0
same,Preemergence herbicidal rating IPOHE,[10]; rate 0.0625 kg/ha,0.0
same,Preemergence herbicidal rating IPOHE,[10]; rate 0.2500 kg/ha,0.0
same,Preemergence herbicidal rating GLXMAW,[11]; rate 0.0156 kg/ha,0.0
same,Preemergence herbicidal rating GLXMAW,[11]; rate 0.0313 kg/ha,0.0
same,Preemergence herbicidal rating GLXMAW,[11]; rate 0.0625 kg/ha,0.0
same,Preemergence herbicidal rating GLXMAW,[11]; rate 0.1250 kg/ha,0.0
same,Preemergence herbicidal rating GLXMAW,[11]; rate 0.2500 kg/ha,2.0
same,Preemergence herbicidal rating ORYSAT,"ORYSAT (Rice, Tebonnet); rate 0.0156 kg/ha",0.0
same,Preemergence herbicidal rating ORYSAT,"ORYSAT (Rice, Tebonnet); rate 0.0313 kg/ha",0.0
same,Preemergence herbicidal rating ORYSAT,"ORYSAT (Rice, Tebonnet); rate 0.0625 kg/ha",0.0
same,Preemergence herbicidal rating ORYSAT,"ORYSAT (Rice, Tebonnet); rate 0.1250 kg/ha",0.0
same,Preemergence herbicidal rating ORYSAT,"ORYSAT (Rice, Tebonnet); rate 0.2500 kg/ha",3.0
same,Herbicidal rating MOOVA,MOOVA (Monochoria); 0.1250 kg/ha,3.0
same,Herbicidal rating MOOVA,MOOVA (Monochoria); 0.2500 kg/ha,6.0
same,Herbicidal rating SAGPY,[12]; 0.1250 kg/ha,3.0
same,Herbicidal rating SAGPY,[12]; 0.2500 kg/ha,6.0
